Data set [1] concerns Influenza A virus. The data set is described as follows: Antiviral activity against Influenza A virus H1N1 infected in MDCK cells assessed as inhibition of viral growth at 100 uM relative to control. The data set is classed as functional.
A short description of data set [2]: Cytotoxicity against dog MDCK cells assessed as reduction in cell viability incubated for 40 hrs by celltiter-glo assay. The data set is classed as toxicity, cell-based, Canis lupus familiaris. On the technique in general: Cellular ATP, detected with luciferase, serves as a proxy for viable cell number.
Data set [3] deals with Influenza A virus. Kind of data set: Antiviral activity against influenza A virus A/WSN/33(H1N1) infected in MDCK cells assessed as inhibition of viral-induced cytopathic effect pretreated with cells followed by viral infection and measured after 40 hrs by fluorescence based microplate reader analysis. Format: functional, organism-based.
The subject of another data set is MDCK. Kind of data set: Cytotoxicity against dog MDCK cells assessed as reduction in cell viability at 100 uM incubated for 40 hrs by celltiter-glo assay. Format: toxicity, cell-based, Canis lupus familiaris.
The nature of data set [4]: Selectivity index, ratio of CC50 for dog MDCK cells to IC50 for influenza A virus A/WSN/33(H1N1) infected in MDCK cells. To be noted: read-out: Selectivity Index. Format: toxicity, cell-based.

For the compound `CC(=O)OC[C@H]1O[C@@H](n2cc(CNC(=O)[C@]34CCC(C)(C)C[C@H]3C3=CC[C@@H]5[C@@]6(C)CC[C@H](OC(=O)NCCCc7cn(Cc8cc(Cn9cc(CCCNC(=O)O[C@H]%10CC[C@]%11(C)[C@H]%12CC=C%13[C@@H]%14CC(C)(C)CC[C@]%14(C(=O)NCc%14cn([C@@H]%15O[C@H](COC(C)=O)[C@@H](OC(C)=O)[C@H](OC(C)=O)[C@H]%15OC(C)=O)nn%14)CC[C@@]%13(C)[C@]%12(C)CC[C@H]%11C%10(C)C)nn9)cc(Cn9cc(CCCNC(=O)O[C@H]%10CC[C@]%11(C)[C@H]%12CC=C%13[C@@H]%14CC(C)(C)CC[C@]%14(C(=O)NCc%14cn([C@@H]%15O[C@H](COC(C)=O)[C@@H](OC(C)=O)[C@H](OC(C)=O)[C@H]%15OC(C)=O)nn%14)CC[C@@]%13(C)[C@]%12(C)CC[C@H]%11C%10(C)C)nn9)c8)nn7)C(C)(C)[C@@H]6CC[C@@]5(C)[C@]3(C)CC4)nn2)[C@H](OC(C)=O)[C@@H](OC(C)=O)[C@@H]1OC(C)=O`, in the data set with Influenza A virus [1], the inhibition (in general, how much of the control response was suppressed) at 100 µM is above 75%. Moreover, the CC50 – broadly, the concentration at which the toxic effect on the cells reaches its halfway point – at 40 h in data set [2] is above 100 µM. The IC50 (as a rule, the point on the concentration scale where inhibition reaches its midpoint) in the data set with Influenza A virus [3] was 6.39 µM. For the same compound, the Activity result in the data set on MDCK is recorded as “Non-toxic”. The selectivity ratio in data set [4] was above 15.6.
As to `CC1(C)CC[C@]2(C(=O)NCc3cn([C@@H]4O[C@H](CO)[C@@H](O)[C@H](O)[C@H]4O)nn3)CC[C@]3(C)C(=CC[C@@H]4[C@@]5(C)CC[C@H](OC(=O)NCCc6cn(CC(CO)(Cn7cc(CCNC(=O)O[C@H]8CC[C@]9(C)[C@H]%10CC=C%11[C@@H]%12CC(C)(C)CC[C@]%12(C(=O)NCc%12cn([C@@H]%13O[C@H](CO)[C@@H](O)[C@H](O)[C@H]%13O)nn%12)CC[C@@]%11(C)[C@]%10(C)CC[C@H]9C8(C)C)nn7)Cn7cc(CCNC(=O)O[C@H]8CC[C@]9(C)[C@H]%10CC=C%11[C@@H]%12CC(C)(C)CC[C@]%12(C(=O)NCc%12cn([C@@H]%13O[C@H](CO)[C@@H](O)[C@H](O)[C@H]%13O)nn%12)CC[C@@]%11(C)[C@]%10(C)CC[C@H]9C8(C)C)nn7)nn6)C(C)(C)[C@@H]5CC[C@]43C)[C@@H]2C1`, the CC50 at 40 h in data set [2] was above 100 µM. Further, the IC50 with Influenza A virus [3] turned out to be 3.39 µM. The Activity entry in the data set with MDCK is “Non-toxic”. In addition, the selectivity ratio in data set [4] was above 29.5.
For the compound `CC(=O)OC[C@H]1O[C@@H](n2cc(CNC(=O)[C@]34CCC(C)(C)C[C@H]3C3=CC[C@@H]5[C@@]6(C)CC[C@H](OC(=O)NCc7cn(CC(CO)(Cn8cc(CNC(=O)O[C@H]9CC[C@]%10(C)[C@H]%11CC=C%12[C@@H]%13CC(C)(C)CC[C@]%13(C(=O)NCc%13cn([C@@H]%14O[C@H](COC(C)=O)[C@@H](OC(C)=O)[C@H](OC(C)=O)[C@H]%14OC(C)=O)nn%13)CC[C@@]%12(C)[C@]%11(C)CC[C@H]%10C9(C)C)nn8)Cn8cc(CNC(=O)O[C@H]9CC[C@]%10(C)[C@H]%11CC=C%12[C@@H]%13CC(C)(C)CC[C@]%13(C(=O)NCc%13cn([C@@H]%14O[C@H](COC(C)=O)[C@@H](OC(C)=O)[C@H](OC(C)=O)[C@H]%14OC(C)=O)nn%13)CC[C@@]%12(C)[C@]%11(C)CC[C@H]%10C9(C)C)nn8)nn7)C(C)(C)[C@@H]6CC[C@@]5(C)[C@]3(C)CC4)nn2)[C@H](OC(C)=O)[C@@H](OC(C)=O)[C@@H]1OC(C)=O`, the inhibition at 100 µM in the data set with Influenza A virus [1] is above 75%. The CC50 at 40 h in data set [2] was above 100 µM. Moreover, the IC50 in the data set with Influenza A virus [3] was determined as 70.4 µM. The Activity result in the data set with MDCK is listed as “Non-toxic”. Also, the selectivity ratio in data set [4] is above 1.42.
For `CC1(C)CC[C@]2(C(=O)NCc3cn([C@@H]4O[C@H](CO)[C@@H](O)[C@H](O)[C@H]4O)nn3)CC[C@]3(C)C(=CC[C@@H]4[C@@]5(C)CC[C@H](OC(=O)NCCc6cn(Cc7cc(Cn8cc(CCNC(=O)O[C@H]9CC[C@]%10(C)[C@H]%11CC=C%12[C@@H]%13CC(C)(C)CC[C@]%13(C(=O)NCc%13cn([C@@H]%14O[C@H](CO)[C@@H](O)[C@H](O)[C@H]%14O)nn%13)CC[C@@]%12(C)[C@]%11(C)CC[C@H]%10C9(C)C)nn8)cc(Cn8cc(CCNC(=O)O[C@H]9CC[C@]%10(C)[C@H]%11CC=C%12[C@@H]%13CC(C)(C)CC[C@]%13(C(=O)NCc%13cn([C@@H]%14O[C@H](CO)[C@@H](O)[C@H](O)[C@H]%14O)nn%13)CC[C@@]%12(C)[C@]%11(C)CC[C@H]%10C9(C)C)nn8)c7)nn6)C(C)(C)[C@@H]5CC[C@]43C)[C@@H]2C1` the same measures were above 75%, above 100 µM, 20.1 µM, “Non-toxic” and above 4.97.
As for `CC(=O)OC[C@H]1O[C@@H](n2cc(CNC(=O)[C@]34CCC(C)(C)C[C@H]3C3=CC[C@@H]5[C@@]6(C)CC[C@H](OC(=O)NCCc7cn(Cc8cc(Cn9cc(CCNC(=O)O[C@H]%10CC[C@]%11(C)[C@H]%12CC=C%13[C@@H]%14CC(C)(C)CC[C@]%14(C(=O)NCc%14cn([C@@H]%15O[C@H](COC(C)=O)[C@@H](OC(C)=O)[C@H](OC(C)=O)[C@H]%15OC(C)=O)nn%14)CC[C@@]%13(C)[C@]%12(C)CC[C@H]%11C%10(C)C)nn9)cc(Cn9cc(CCNC(=O)O[C@H]%10CC[C@]%11(C)[C@H]%12CC=C%13[C@@H]%14CC(C)(C)CC[C@]%14(C(=O)NCc%14cn([C@@H]%15O[C@H](COC(C)=O)[C@@H](OC(C)=O)[C@H](OC(C)=O)[C@H]%15OC(C)=O)nn%14)CC[C@@]%13(C)[C@]%12(C)CC[C@H]%11C%10(C)C)nn9)c8)nn7)C(C)(C)[C@@H]6CC[C@@]5(C)[C@]3(C)CC4)nn2)[C@H](OC(C)=O)[C@@H](OC(C)=O)[C@@H]1OC(C)=O`, the inhibition at 100 µM in the data set on Influenza A virus [1] is above 75%. For the same compound, in data set [2], the cytotoxic concentration (CC50) at 40 h is above 100 µM. Besides, the IC50 with Influenza A virus [3] was determined as 46.8 µM. In addition, the Activity entry in the data set with MDCK is given as “Non-toxic”. The selectivity ratio in data set [4] was above 8.55.
As for `CC1(C)CC[C@]2(C(=O)NCc3cn([C@@H]4O[C@H](CO)[C@@H](O)[C@H](O)[C@H]4O)nn3)CC[C@]3(C)C(=CC[C@@H]4[C@@]5(C)CC[C@H](OC(=O)NCCCCCc6cn(CC(CO)(Cn7cc(CCCCCNC(=O)O[C@H]8CC[C@]9(C)[C@H]%10CC=C%11[C@@H]%12CC(C)(C)CC[C@]%12(C(=O)NCc%12cn([C@@H]%13O[C@H](CO)[C@@H](O)[C@H](O)[C@H]%13O)nn%12)CC[C@@]%11(C)[C@]%10(C)CC[C@H]9C8(C)C)nn7)Cn7cc(CCCCCNC(=O)O[C@H]8CC[C@]9(C)[C@H]%10CC=C%11[C@@H]%12CC(C)(C)CC[C@]%12(C(=O)NCc%12cn([C@@H]%13O[C@H](CO)[C@@H](O)[C@H](O)[C@H]%13O)nn%12)CC[C@@]%11(C)[C@]%10(C)CC[C@H]9C8(C)C)nn7)nn6)C(C)(C)[C@@H]5CC[C@]43C)[C@@H]2C1`, the inhibition at 100 µM with Influenza A virus [1] was above 75%. In addition, the CC50 at 40 h in data set [2] was above 100 µM. Further, the IC50 with Influenza A virus [3] worked out at 5.99 µM. Also, in the data set with MDCK, the Activity entry is “Non-toxic”. For the same compound, in data set [4], the selectivity ratio is above 16.7.
For `CC(=O)OC[C@H]1O[C@@H](n2cc(CNC(=O)[C@]34CCC(C)(C)C[C@H]3C3=CC[C@@H]5[C@@]6(C)CC[C@H](OC(=O)NCc7cn(Cc8cc(Cn9cc(CNC(=O)O[C@H]%10CC[C@]%11(C)[C@H]%12CC=C%13[C@@H]%14CC(C)(C)CC[C@]%14(C(=O)NCc%14cn([C@@H]%15O[C@H](COC(C)=O)[C@@H](OC(C)=O)[C@H](OC(C)=O)[C@H]%15OC(C)=O)nn%14)CC[C@@]%13(C)[C@]%12(C)CC[C@H]%11C%10(C)C)nn9)cc(Cn9cc(CNC(=O)O[C@H]%10CC[C@]%11(C)[C@H]%12CC=C%13[C@@H]%14CC(C)(C)CC[C@]%14(C(=O)NCc%14cn([C@@H]%15O[C@H](COC(C)=O)[C@@H](OC(C)=O)[C@H](OC(C)=O)[C@H]%15OC(C)=O)nn%14)CC[C@@]%13(C)[C@]%12(C)CC[C@H]%11C%10(C)C)nn9)c8)nn7)C(C)(C)[C@@H]6CC[C@@]5(C)[C@]3(C)CC4)nn2)[C@H](OC(C)=O)[C@@H](OC(C)=O)[C@@H]1OC(C)=O` the same measures were above 75%, above 100 µM, 0.68 µM, “Non-toxic” and above 147.
For `CC(=O)OC[C@H]1O[C@@H](n2cc(CNC(=O)[C@]34CCC(C)(C)C[C@H]3C3=CC[C@@H]5[C@@]6(C)CC[C@H](OC(=O)NCCc7cn(CC(CO)(Cn8cc(CCNC(=O)O[C@H]9CC[C@]%10(C)[C@H]%11CC=C%12[C@@H]%13CC(C)(C)CC[C@]%13(C(=O)NCc%13cn([C@@H]%14O[C@H](COC(C)=O)[C@@H](OC(C)=O)[C@H](OC(C)=O)[C@H]%14OC(C)=O)nn%13)CC[C@@]%12(C)[C@]%11(C)CC[C@H]%10C9(C)C)nn8)Cn8cc(CCNC(=O)O[C@H]9CC[C@]%10(C)[C@H]%11CC=C%12[C@@H]%13CC(C)(C)CC[C@]%13(C(=O)NCc%13cn([C@@H]%14O[C@H](COC(C)=O)[C@@H](OC(C)=O)[C@H](OC(C)=O)[C@H]%14OC(C)=O)nn%13)CC[C@@]%12(C)[C@]%11(C)CC[C@H]%10C9(C)C)nn8)nn7)C(C)(C)[C@@H]6CC[C@@]5(C)[C@]3(C)CC4)nn2)[C@H](OC(C)=O)[C@@H](OC(C)=O)[C@@H]1OC(C)=O` the same measures were above 75%, above 100 µM, 10.3 µM, “Non-toxic” and above 9.69.
With `CCOC(=O)C1=C[C@@H](OC(CC)CC)[C@H](NC(C)=O)[C@@H](N)C1.O=P(O)(O)O` [OSELTAMIVIR PHOSPHATE], the CC50 at 40 h in data set [2] is above 100 µM. Moreover, in the data set with Influenza A virus [3], the IC50 was 5.47 µM. Besides, in the data set on MDCK, the Activity result is “Non-toxic”. Besides, the selectivity ratio in data set [4] was above 18.3.

The record behind these values is ChEMBL document CHEMBL6078640, “Trivalent oleanolic acid-glucose conjugates: Synthesis and efficacy against Influenza A virus” (Eur J Med Chem, 2024).
